Columns and labels:
[1] = tested on: pectic acid lyases from Example 3 and Example 8; assay type: biochemical, Bacillus sp. KSM-P15; conditions: pH 7.5
[2] = tested on: wild-type and reconbinant enzyme; experiment: Effect of the arginine-modifier 2,3-butanedione on residual activity; assay type: biochemical, Bacillus sp. KSM-P15; conditions: 0.1 M borate buffer pH 9.5, 30°C, 30 minutes; both enzymes
[3] = tested on: recombinant pectic acid lyase of Bacillus sp. KSM-P15 (rPAL, Example 8), Sequence No. 1; experiment: Effect of H2O2 on residual pectic acid lyase activity; assay type: biochemical; conditions: in the presence of 3% H2O2; 50 mM Tris-HCl buffer (pH 7.5), 30°C, 30 minutes
Experimental: (§1) 0.5 M glycine-NaOH buffer (pH 10.5) (0.3 ml), 6 mM calcium chloride (0.3 ml), and deionized water (1.7 ml) were placed in a test tube, which was then incubated at 30°C for 5 minutes. An appropriately diluted enzyme solution [0.1 ml, diluted with 50 mM Tris-HCl buffer containing 1 mM calcium chloride (pH 7.5)] was added to the test tube, which was further incubated at constant temperature for 5 minutes. An aqueous solution of polygalacturonic acid (0.6 ml, 1% (w/v), product of ICN Biomedicals Co., Lot 14482, pH 6.8 adjusted with sodium hydroxide solution) was added to the enzyme solution to initiate reaction, and the mixture was incubated at 30°C for 10 minutes. The reaction was terminated by the addition of 3 ml of 50 mM HCl. The quantity of unsaturated Oligogalacturonic acid formed in the reaction was determined through measuring the absorbance at 235 nm and calculating with the molar extinction coefficient of unsaturated digalacturonide (4600 M^-1 cm^-1, Hasegawa & Nagel, J. Food Sci., 31, 838-845, 1966). A test blank was prepared as follows: 50 mM hydrochloric acid (3 ml) was added to a reaction mixture treated without being incorporated with the enzyme solution, and subsequently an enzyme solution (0.1 ml) was added thereto. […]

[4] = tested on: pectic acid lyase from Bacillus sp. KSM-P15, wild type (BPAL, Example 3), Sequence No. 1; experiment: as above; assay type: biochemical; conditions: in the presence of 3% H2O2; 50 mM Tris-HCl buffer (pH 7.5), 30°C, 30 minutes
Experimental: as §1

Compound	inhibition (in words) [1]	further results
O[C@H](CS)[C@H](O)CS (racemic) [dithiothreitol]	slightly inhibited or did not completely inhibit the enzymes	
CC(=O)C(C)=O [2,3-butanedione]		inhibition (residual activity) [2]: ≥ 40%
O=C(O)c1cc(SSc2ccc([N+](=O)[O-])c(C(=O)O)c2)ccc1[N+](=O)[O-] [5,5'-dithiobis(2-nitrobenzoic acid)]	slightly inhibited or did not completely inhibit the enzymes	
O=C1CCC(=O)N1Br [N-bromosuccinimide]		percentage inhibition [1]: 30-40%
CCN1C(=O)C=CC1=O [N-ethylmaleimide]	slightly inhibited or did not completely inhibit the enzymes	
CCOC(=O)OC(=O)OCC [diethyl pyrocarbonate]	slightly inhibited or did not completely inhibit the enzymes	
O=CC=O [glyoxal]	slightly inhibited or did not completely inhibit the enzymes	
O=C(O)CI [iodoacetic acid]	slightly inhibited or did not completely inhibit the enzymes	
O=C(O)c1cc[c]([Hg][Cl])cc1 [p-Chloromercuribenzoic acid]	slightly inhibited or did not completely inhibit the enzymes	
H2O2		inactivation (residual activity, in words) [3]: not be inactivated; inactivation (residual activity, in words) [4]: not be inactivated

Reference: patent EP1500700B1, “Use of a pectic acid lyase in a detergent” (KAO CORPORATION, priority 1997, dated 1998)
